What was measured:
[1] = molecular target: Serine/threonine-protein kinase pim-1 (Homo sapiens) (UniProt P11309); details: Compound concentration 1000.0 nM
[2] = molecular target: Mitogen-activated protein kinase kinase kinase 6 (Homo sapiens) (UniProt O95382); details: Compound concentration 1000.0 nM
[3] = molecular target: Histamine H3 receptor (Homo sapiens) (UniProt Q9Y5N1); details: Compound concentration 10.0 uM
[4] = molecular target: Tyrosine-protein kinase receptor UFO (Homo sapiens) (UniProt P30530); details: Compound concentration 1000.0 nM
[5] = molecular target: Ephrin type-B receptor 2 (Homo sapiens) (UniProt P29323); details: Compound concentration 1000.0 nM
[6] = molecular target: Tyrosine-protein kinase Tec (Homo sapiens) (UniProt P42680); details: Compound concentration 1000.0 nM
[7] = molecular target: Aurora kinase A (Homo sapiens) (UniProt O14965); details: Compound concentration 1000.0 nM
[8] = molecular target: Serine/threonine-protein kinase 4 (Homo sapiens) (UniProt Q13043); details: Compound concentration 1000.0 nM
[9] = molecular target: Dual specificity mitogen-activated protein kinase kinase 6 (Homo sapiens) (UniProt P52564); details: Compound concentration 1000.0 nM
[10] = molecular target: Tyrosine-protein kinase TXK (Homo sapiens) (UniProt P42681); details: Compound concentration 1000.0 nM
[11] = molecular target: GABA-A receptor; anion channel (Rattus norvegicus) (UniProt O09028+P15431+P18506+P18508+P19969+P20236+P23574+P23576+P28471+P28473+P30191+P62813+P63079+P63138+Q91ZM7+Q9ES14); details: Compound concentration 10.0 uM
[12] = molecular target: Serine/threonine-protein kinase PAK 6 (Homo sapiens) (UniProt Q9NQU5); details: Compound concentration 1000.0 nM
[13] = molecular target: cGMP-dependent protein kinase 1 (Homo sapiens) (UniProt Q13976); details: Compound concentration 1000.0 nM
[14] = molecular target: Serine/threonine-protein kinase NIM1 (Homo sapiens) (UniProt Q8IY84); details: Compound concentration 1000.0 nM
[15] = molecular target: Ephrin type-A receptor 8 (Homo sapiens) (UniProt P29322); details: Compound concentration 1000.0 nM
[16] = molecular target: Serine/threonine-protein kinase 32B (Homo sapiens) (UniProt Q9NY57); details: Compound concentration 1000.0 nM
[17] = molecular target: Cyclin-dependent kinase-like 3 (Homo sapiens) (UniProt Q8IVW4); details: Compound concentration 1000.0 nM
[18] = molecular target: STE20-like serine/threonine-protein kinase (Homo sapiens) (UniProt Q9H2G2); details: Compound concentration 1000.0 nM
[19] = molecular target: Ribosomal protein S6 kinase alpha-4 (Homo sapiens) (UniProt O75676); details: Compound concentration 1000.0 nM
[20] = system: Epidermal growth factor receptor (Homo sapiens), P00533 [L858R,T790M]; details: Compound concentration 1000.0 nM
[21] = molecular target: Homeodomain-interacting protein kinase 4 (Homo sapiens) (UniProt Q8NE63); details: Compound concentration 1000.0 nM
[22] = molecular target: Serine/threonine-protein kinase WNK1 (Homo sapiens) (UniProt Q9H4A3); details: Compound concentration 1000.0 nM
[23] = molecular target: Activin receptor type-1-like (Homo sapiens) (UniProt P37023); details: Compound concentration 1000.0 nM
[24] = molecular target: Myosin-IIIa (Homo sapiens) (UniProt Q8NEV4); details: Compound concentration 1000.0 nM
[25] = molecular target: Rhodopsin kinase GRK7 (Homo sapiens) (UniProt Q8WTQ7); details: Compound concentration 1000.0 nM
[26] = molecular target: Serine/threonine-protein kinase Sgk2 (Homo sapiens) (UniProt Q9HBY8); details: Compound concentration 1000.0 nM
[27] = molecular target: Fibroblast growth factor receptor 4 (Homo sapiens) (UniProt P22455); details: Compound concentration 1000.0 nM
[28] = system: Epidermal growth factor receptor (Homo sapiens), P00533 [L861Q]; details: Compound concentration 1000.0 nM
[29] = molecular target: Mitogen-activated protein kinase 15 (Homo sapiens) (UniProt Q8TD08); details: Compound concentration 1000.0 nM
[30] = molecular target: Mitogen-activated protein kinase kinase kinase kinase 5 (Homo sapiens) (UniProt Q9Y4K4); details: Compound concentration 1000.0 nM
[31] = molecular target: Ephrin type-A receptor 2 (Homo sapiens) (UniProt P29317); details: Compound concentration 1000.0 nM
[32] = system: Receptor-type tyrosine-protein kinase FLT3 (Homo sapiens), P36888 [D835V]; details: Compound concentration 1000.0 nM
[33] = molecular target: Tyrosine-protein kinase ITK/TSK (Homo sapiens) (UniProt Q08881); details: Compound concentration 1000.0 nM
[34] = system: Receptor-type tyrosine-protein kinase FLT3 (Homo sapiens), P36888 [N841I]; details: Compound concentration 1000.0 nM
[35] = molecular target: Vascular endothelial growth factor receptor 1 (Homo sapiens) (UniProt P17948); details: Compound concentration 1000.0 nM
[36] = system: Phosphatidylinositol 4,5-bisphosphate 3-kinase catalytic subunit alpha isoform (Homo sapiens), P42336 [Q546K]; details: Compound concentration 1000.0 nM
[37] = system: Tyrosine-protein kinase ABL1 (Homo sapiens), P00519 [F317L]; details: Compound concentration 1000.0 nM
[38] = molecular target: Ephrin type-B receptor 1 (Homo sapiens) (UniProt P54762); details: Compound concentration 1000.0 nM
[39] = molecular target: Serine/threonine-protein kinase DCLK2 (Homo sapiens) (UniProt Q8N568); details: Compound concentration 1000.0 nM
[40] = molecular target: Mu-type opioid receptor (Homo sapiens) (UniProt P35372); details: Compound concentration 10.0 uM
[41] = molecular target: 5-hydroxytryptamine receptor 5A (Homo sapiens) (UniProt P47898); details: Compound concentration 10.0 uM
[42] = molecular target: Serine/threonine-protein kinase TAO1 (Homo sapiens) (UniProt Q7L7X3); details: Compound concentration 1000.0 nM
[43] = molecular target: Cyclin-dependent kinase-like 5 (Homo sapiens) (UniProt O76039); details: Compound concentration 1000.0 nM
[44] = system: Proto-oncogene tyrosine-protein kinase receptor Ret (Homo sapiens), P07949 [V804M]; details: Compound concentration 1000.0 nM

Aurora kinase A (Homo sapiens), sequence (O14965 whole entry): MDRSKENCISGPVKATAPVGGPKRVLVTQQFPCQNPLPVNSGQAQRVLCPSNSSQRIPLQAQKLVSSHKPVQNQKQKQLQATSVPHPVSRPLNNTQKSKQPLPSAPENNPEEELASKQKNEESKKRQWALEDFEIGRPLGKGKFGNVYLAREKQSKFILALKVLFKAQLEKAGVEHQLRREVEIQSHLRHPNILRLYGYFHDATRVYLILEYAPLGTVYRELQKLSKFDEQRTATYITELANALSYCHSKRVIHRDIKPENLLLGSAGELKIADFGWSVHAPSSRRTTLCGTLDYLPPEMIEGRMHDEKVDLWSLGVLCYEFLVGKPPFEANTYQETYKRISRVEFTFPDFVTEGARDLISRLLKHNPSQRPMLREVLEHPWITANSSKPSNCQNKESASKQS
Fibroblast growth factor receptor 4 (Homo sapiens), sequence (P22455 22-802 limits assumed): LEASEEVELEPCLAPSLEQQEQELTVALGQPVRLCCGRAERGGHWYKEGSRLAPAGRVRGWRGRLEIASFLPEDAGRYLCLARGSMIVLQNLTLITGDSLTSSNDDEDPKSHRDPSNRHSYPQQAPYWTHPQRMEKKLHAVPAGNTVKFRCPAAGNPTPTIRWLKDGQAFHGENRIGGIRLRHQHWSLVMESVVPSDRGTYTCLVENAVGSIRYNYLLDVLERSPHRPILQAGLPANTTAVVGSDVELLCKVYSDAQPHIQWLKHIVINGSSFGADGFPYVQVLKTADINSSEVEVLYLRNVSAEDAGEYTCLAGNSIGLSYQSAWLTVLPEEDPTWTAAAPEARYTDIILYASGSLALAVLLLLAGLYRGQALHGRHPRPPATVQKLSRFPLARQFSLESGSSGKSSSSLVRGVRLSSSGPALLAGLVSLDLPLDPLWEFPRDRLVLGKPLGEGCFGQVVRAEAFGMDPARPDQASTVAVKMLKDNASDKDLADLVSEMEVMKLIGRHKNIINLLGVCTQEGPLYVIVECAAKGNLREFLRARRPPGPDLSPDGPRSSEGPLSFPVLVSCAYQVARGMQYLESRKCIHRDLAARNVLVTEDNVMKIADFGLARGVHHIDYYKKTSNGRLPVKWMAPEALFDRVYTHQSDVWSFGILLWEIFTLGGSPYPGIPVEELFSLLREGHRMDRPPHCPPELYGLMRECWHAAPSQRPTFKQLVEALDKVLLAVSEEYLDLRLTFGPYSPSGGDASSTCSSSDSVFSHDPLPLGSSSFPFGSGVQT
Tyrosine-protein kinase Tec (Homo sapiens), sequence (P42680 whole entry): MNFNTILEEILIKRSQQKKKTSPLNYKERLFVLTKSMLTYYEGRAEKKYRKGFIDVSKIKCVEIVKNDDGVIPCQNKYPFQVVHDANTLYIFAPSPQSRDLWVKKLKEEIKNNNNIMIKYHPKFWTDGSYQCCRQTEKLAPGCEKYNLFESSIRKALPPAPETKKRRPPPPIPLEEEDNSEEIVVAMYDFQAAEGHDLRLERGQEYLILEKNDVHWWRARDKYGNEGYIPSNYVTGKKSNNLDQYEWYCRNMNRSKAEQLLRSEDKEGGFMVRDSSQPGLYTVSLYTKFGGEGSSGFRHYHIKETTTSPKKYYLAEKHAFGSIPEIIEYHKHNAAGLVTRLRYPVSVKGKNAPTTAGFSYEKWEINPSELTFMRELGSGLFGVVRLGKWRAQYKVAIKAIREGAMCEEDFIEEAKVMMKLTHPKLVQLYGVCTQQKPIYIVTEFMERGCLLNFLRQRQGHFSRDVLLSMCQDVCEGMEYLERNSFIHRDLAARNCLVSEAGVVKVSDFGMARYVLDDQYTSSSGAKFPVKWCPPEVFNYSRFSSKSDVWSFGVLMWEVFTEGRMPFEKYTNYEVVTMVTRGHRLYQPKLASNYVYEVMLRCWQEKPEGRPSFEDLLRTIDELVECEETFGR
Myosin-IIIa (Homo sapiens), sequence (Q8NEV4 whole entry): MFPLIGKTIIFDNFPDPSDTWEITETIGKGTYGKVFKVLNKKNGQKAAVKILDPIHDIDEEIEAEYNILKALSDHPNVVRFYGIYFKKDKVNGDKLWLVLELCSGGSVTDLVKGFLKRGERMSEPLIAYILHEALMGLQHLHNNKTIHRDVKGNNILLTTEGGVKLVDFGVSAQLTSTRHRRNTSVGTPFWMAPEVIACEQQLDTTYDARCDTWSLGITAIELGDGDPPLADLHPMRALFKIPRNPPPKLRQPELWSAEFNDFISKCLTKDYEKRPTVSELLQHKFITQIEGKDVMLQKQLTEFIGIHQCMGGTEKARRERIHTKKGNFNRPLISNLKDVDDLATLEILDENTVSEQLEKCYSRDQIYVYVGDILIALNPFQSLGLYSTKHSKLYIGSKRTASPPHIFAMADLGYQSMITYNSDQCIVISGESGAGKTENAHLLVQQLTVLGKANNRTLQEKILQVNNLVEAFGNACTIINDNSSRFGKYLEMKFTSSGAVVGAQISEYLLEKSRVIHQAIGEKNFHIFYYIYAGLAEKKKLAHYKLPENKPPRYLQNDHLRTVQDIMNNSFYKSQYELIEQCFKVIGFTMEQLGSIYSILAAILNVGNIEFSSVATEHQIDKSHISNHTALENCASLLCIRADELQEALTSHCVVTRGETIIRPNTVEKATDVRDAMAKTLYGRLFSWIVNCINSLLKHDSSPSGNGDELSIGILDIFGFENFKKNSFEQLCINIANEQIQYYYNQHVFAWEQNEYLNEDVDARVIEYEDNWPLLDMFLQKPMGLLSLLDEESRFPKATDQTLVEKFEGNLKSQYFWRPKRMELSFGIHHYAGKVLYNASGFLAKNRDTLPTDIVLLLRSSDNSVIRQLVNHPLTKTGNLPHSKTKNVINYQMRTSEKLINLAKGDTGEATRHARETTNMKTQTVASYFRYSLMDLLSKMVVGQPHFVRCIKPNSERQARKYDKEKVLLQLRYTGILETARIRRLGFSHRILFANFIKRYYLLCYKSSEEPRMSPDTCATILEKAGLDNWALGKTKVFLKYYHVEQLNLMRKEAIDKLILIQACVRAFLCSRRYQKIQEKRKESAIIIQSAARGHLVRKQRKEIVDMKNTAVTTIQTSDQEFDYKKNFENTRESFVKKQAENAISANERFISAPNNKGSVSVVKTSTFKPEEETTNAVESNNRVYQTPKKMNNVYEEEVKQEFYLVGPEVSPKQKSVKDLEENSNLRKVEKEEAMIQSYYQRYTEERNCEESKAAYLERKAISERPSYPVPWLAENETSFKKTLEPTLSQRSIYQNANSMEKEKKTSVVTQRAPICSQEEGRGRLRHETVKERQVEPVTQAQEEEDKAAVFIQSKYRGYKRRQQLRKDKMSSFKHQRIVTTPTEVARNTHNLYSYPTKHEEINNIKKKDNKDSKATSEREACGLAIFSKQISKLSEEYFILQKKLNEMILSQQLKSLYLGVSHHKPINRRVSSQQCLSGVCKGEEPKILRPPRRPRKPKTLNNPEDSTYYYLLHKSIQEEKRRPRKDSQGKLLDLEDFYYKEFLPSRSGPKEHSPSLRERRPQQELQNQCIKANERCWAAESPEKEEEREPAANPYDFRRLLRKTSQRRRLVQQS
Tyrosine-protein kinase ITK/TSK (Homo sapiens), sequence (Q08881 whole entry): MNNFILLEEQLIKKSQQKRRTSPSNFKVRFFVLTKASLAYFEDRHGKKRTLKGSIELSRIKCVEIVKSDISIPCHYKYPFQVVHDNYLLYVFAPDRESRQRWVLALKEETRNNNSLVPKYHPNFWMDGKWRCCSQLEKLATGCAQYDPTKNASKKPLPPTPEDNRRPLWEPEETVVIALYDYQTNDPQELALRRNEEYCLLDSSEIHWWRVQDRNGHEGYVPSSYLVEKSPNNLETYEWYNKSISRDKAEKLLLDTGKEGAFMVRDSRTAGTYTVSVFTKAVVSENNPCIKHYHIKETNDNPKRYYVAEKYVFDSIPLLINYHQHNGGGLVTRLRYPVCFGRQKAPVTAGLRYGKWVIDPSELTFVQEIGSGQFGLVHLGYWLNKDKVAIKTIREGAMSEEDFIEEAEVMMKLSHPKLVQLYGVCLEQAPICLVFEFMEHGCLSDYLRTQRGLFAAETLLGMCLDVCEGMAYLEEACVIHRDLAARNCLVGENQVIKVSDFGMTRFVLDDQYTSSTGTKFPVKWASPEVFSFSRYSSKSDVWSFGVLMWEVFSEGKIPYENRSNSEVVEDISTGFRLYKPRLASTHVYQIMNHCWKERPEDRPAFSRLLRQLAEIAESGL
Serine/threonine-protein kinase PAK 6 (Homo sapiens), sequence (Q9NQU5 whole entry, looked up): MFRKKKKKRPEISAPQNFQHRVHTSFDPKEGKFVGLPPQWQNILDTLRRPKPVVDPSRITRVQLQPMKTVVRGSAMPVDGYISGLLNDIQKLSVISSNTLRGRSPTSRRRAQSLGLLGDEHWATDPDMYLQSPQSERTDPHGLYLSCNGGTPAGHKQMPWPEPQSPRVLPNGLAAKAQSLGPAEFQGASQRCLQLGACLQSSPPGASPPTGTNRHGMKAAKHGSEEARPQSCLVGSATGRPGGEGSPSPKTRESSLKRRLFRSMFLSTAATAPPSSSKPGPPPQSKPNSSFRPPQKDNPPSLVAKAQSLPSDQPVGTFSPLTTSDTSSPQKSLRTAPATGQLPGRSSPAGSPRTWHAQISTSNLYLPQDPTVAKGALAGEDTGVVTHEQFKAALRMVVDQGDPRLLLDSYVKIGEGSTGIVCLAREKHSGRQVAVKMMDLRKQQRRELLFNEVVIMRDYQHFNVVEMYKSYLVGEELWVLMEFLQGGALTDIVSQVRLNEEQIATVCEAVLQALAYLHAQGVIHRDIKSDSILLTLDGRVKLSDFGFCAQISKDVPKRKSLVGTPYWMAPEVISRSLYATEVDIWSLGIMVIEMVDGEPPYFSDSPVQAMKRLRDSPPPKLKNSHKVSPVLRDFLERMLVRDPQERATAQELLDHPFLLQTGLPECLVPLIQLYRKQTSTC
Serine/threonine-protein kinase pim-1 (Homo sapiens), sequence (P11309 whole entry, looked up): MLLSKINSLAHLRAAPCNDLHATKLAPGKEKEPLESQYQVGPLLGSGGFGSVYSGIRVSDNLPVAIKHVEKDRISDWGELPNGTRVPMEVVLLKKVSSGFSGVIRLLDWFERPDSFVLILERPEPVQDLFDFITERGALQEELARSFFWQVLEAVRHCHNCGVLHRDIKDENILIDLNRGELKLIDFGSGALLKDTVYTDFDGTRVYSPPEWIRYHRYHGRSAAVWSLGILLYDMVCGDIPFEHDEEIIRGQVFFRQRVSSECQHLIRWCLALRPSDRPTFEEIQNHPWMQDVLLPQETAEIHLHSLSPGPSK

CCC(=O)N[C@H]1CC[C@@H](C(=O)N(C)c2ccc(-c3nc4ccccc4o3)cc2)C1 [BI 99179]
residual activity [1]: 100% | residual activity [2]: 76% | inhibition [3]: -8.17% | residual activity [4]: 87% | residual activity [5]: 100% | residual activity [6]: 100% | residual activity [7]: 43% | residual activity [8]: 100% | residual activity [9]: 100% | residual activity [10]: 100% | inhibition [11]: 23.2% | residual activity [12]: 100% | residual activity [13]: 100% | residual activity [14]: 88% | residual activity [15]: 96% | residual activity [16]: 98% | residual activity [17]: 100% | residual activity [18]: 92% | residual activity [19]: 79% | residual activity [20]: 100% | residual activity [21]: 100% | residual activity [22]: 100% | residual activity [23]: 77% | residual activity [24]: 100% | residual activity [25]: 82% | residual activity [26]: 93% | residual activity [27]: 100% | residual activity [28]: 100% | residual activity [29]: 100% | residual activity [30]: 100% | residual activity [31]: 100% | residual activity [32]: 73% | residual activity [33]: 100% | residual activity [34]: 100% | residual activity [35]: 98% | residual activity [36]: 91% | residual activity [37]: 72% | residual activity [38]: 100% | residual activity [39]: 98% | inhibition [40]: 10.3% | inhibition [41]: -1.85% | residual activity [42]: 100% | residual activity [43]: 82% | residual activity [44]: 100%

CCC(=O)N[C@@H]1CC[C@H](C(=O)N(C)c2ccc(-c3nc4ccccc4o3)cc2)C1 [BI 99990]
residual activity [1]: 100% | residual activity [2]: 75% | inhibition [3]: 1.65% | residual activity [4]: 100% | residual activity [5]: 82% | residual activity [6]: 100% | residual activity [7]: 100% | residual activity [8]: 90% | residual activity [9]: 100% | residual activity [10]: 77% | inhibition [11]: 40.3% | residual activity [12]: 100% | residual activity [13]: 100% | residual activity [14]: 99% | residual activity [15]: 100% | residual activity [16]: 71% | residual activity [17]: 79% | residual activity [18]: 100% | residual activity [19]: 100% | residual activity [20]: 100% | residual activity [21]: 100% | residual activity [22]: 100% | residual activity [23]: 100% | residual activity [24]: 100% | residual activity [25]: 93% | residual activity [26]: 100% | residual activity [27]: 89% | residual activity [28]: 95% | residual activity [29]: 100% | residual activity [30]: 91% | residual activity [31]: 94% | residual activity [32]: 92% | residual activity [33]: 100% | residual activity [34]: 100% | residual activity [35]: 100% | residual activity [36]: 100% | residual activity [37]: 86% | residual activity [38]: 100% | residual activity [39]: 89% | inhibition [40]: 14.1% | inhibition [41]: -3.5% | residual activity [42]: 97% | residual activity [43]: 100% | residual activity [44]: 100%
